From ChEMBL document CHEMBL1133141, “Synthesis and biological activities of hapalosin derivatives with modification at the C12 position” (2000)

Experiments:
HT-1080 = experiment: Compound was tested for the induction of apoptosis in human fibrosarcoma HT1080 cell line; No induction of apoptosis up to 10 ug/mL; format: functional, cell-based
A2780 = experiment: MDR-reversing activity was measured by vincristine accumulation in the multidrug resistant 2780AD, a subline of A2780 ovarian carcinoma cells at 10 µg/mL

Structure (SMILES) | Concentration (HT-1080) | Vincristine accumulation (% of control) (A2780)
CCCCCCC[C@H]1OC(=O)C[C@@H](O)[C@H](Cc2ccccc2)N(C)C(=O)[C@H](C(C)CC)OC(=O)[C@H]1C (stereo partly drawn) | No induction | 308%
CCCCCCC[C@H]1OC(=O)C[C@@H](O)[C@H](Cc2ccccc2)N(C)C(=O)[C@H](CCSC)OC(=O)[C@H]1C | No induction | 269%
CCCCCCC[C@H]1OC(=O)C[C@@H](O)[C@H](Cc2ccccc2)N(C)C(=O)[C@H](CC(C)C)OC(=O)[C@H]1C | No induction | 288%
CCCCCCC[C@H]1OC(=O)C[C@@H](O)[C@H](Cc2ccccc2)N(C)C(=O)[C@H](C)OC(=O)[C@H]1C | No induction | 441%
CCCCCCC[C@H]1OC(=O)C[C@@H](O)[C@H](Cc2ccccc2)N(C)C(=O)[C@H](C(C)C)OC(=O)[C@H]1C [HAPALOSIN] | No induction | 267%
CCCCCCC[C@H]1OC(=O)C[C@@H](O)[C@H](Cc2ccccc2)N(C)C(=O)[C@H](Cc2ccccc2)OC(=O)[C@H]1C | No induction | 254%
COc1ccc(CCN(C)CCCC(C#N)(c2ccc(OC)c(OC)c2)C(C)C)cc1OC (stereo not drawn) [VERAPAMIL] |  | 350%
